{
  "source": "paper PMC7442650",
  "about": "“A machine learning-based chemoproteomic approach to identify drug targets and binding sites in complex proteomes” (Nature Communications, 2020)",
  "key": {"[1]": {"target": "Bcin06g02870 (predicted casein kinase I homolog) (Botrytis cinerea, UniProt A0A384JJQ0)", "assay": "LiP-Quant, Botrytis cinerea lysate", "assay_type": "binding", "from_the_text": "Given its abilities to identify and characterize drug targets and their binding sites, we applied LiP-Quant to a research fungicide compound with an unknown target (BAYE-004, Fig. 4a)."}, "[2]": {"target": "T1, Botrytis cinerea MBP-CK1 recombinant enzyme (MBP-tagged Bcin06g02870) (Botrytis cinerea, UniProt A0A384JJQ0)", "T1 sequence (A0A384JJQ0 1-368)": "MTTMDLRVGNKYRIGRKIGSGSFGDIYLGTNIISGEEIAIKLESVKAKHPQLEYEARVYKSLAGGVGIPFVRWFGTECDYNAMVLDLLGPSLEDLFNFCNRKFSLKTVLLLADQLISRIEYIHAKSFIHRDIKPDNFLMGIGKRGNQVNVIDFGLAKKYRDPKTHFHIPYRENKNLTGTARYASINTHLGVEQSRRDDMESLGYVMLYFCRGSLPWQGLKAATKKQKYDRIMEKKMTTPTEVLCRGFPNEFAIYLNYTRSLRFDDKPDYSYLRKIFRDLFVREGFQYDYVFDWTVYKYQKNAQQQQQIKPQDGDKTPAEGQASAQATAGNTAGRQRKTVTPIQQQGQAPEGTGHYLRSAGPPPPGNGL", "assay": "CK1 kinase assay (LANCE Ultra TR-FRET)", "assay_type": "biochemical", "settings": "for % Inhibition of CK-1: rep 1, rep2", "from_the_text": "We calculated the center of mass of the #6 and #7 ranking LiP-Quant peptides to estimate the position of the BAYE-004 binding site within Bcin06g02870. Here we considered two LiP-Quant peptides for the center of mass calculation, as there were only two high scoring LiP-Quant peptides that could be used. The putative binding site of the drug maps in the ATP-binding site of Bcin06g02870, which is also a common binding site for kinase inhibitors (Fig. 4e, Supplementary Data 3). Finally, we performed a LANCE Ultra kinase assay (Perkin Elmer) to measure the phosphorylation activity on a peptide substrate of a purified MBP-tagged version of Bcin06g02870.\nThe LANCE Ultra time resolved fluorescence resonance energy transfer (Tr-FRET) kinase assay (Perkin Elmer, #TRF0300-C) protocol was used according to manufacturer’s instructions with adaptations made for the following conditions. […] The reaction was performed in duplicates in the dark at 30 °C for 90 min. Plates were read in a Victor2 Perkin plate reader (excitation 340 nm/emission 665 nm)."}, "Botrytis cinerea": {"test_system": "Botrytis cinerea", "assay": "Cell viability (IC50) assay, inhibition of cell growth by optical density", "settings": "three days, Rep 1-3", "experimental": "Botrytis cinerea BO5.10 (2 × 10^3 cells/ml) mycelium in GYPm liquid media (200 µl) was cultured at 21 °C without shaking in a micro-titer plate. […] The culture was grown for three days at 21 °C after inoculation at which point the optical density was measured again. Inhibition of cell growth was calculated at each concentration."}, "[3]": {"target": "Bcin16g04330 (predicted glycogen synthase kinase-3β homolog) (Botrytis cinerea, UniProt A0A384K7E5)", "sequence (A0A384K7E5 1-398)": "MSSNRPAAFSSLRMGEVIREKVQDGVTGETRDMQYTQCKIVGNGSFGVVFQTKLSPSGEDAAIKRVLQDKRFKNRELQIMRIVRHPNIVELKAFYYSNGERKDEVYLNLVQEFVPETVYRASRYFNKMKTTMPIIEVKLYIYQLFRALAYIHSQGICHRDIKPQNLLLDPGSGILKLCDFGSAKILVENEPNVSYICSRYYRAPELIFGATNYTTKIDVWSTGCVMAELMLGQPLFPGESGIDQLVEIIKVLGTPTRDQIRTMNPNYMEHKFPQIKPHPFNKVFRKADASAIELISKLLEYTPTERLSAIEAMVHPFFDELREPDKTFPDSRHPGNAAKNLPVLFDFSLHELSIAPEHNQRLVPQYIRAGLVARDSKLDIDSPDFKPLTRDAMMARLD", "assay": "LiP-Quant, Botrytis cinerea lysate", "settings": "read-out: extrapolated average EC50; top two ranking LiP-Quant peptides"}, "His-tagged Bcin06g02870": {"test_system": "His-tagged Bcin06g02870", "assay": "Cellular thermal shift assay (CETSA), western blot", "assay_type": "cell-based, Botrytis cinerea", "settings": "in vivo treatment, 56 °C", "description": "Botrytis cinerea BO47 (CK1 His-Tagged) cell suspension was adjusted to 1 × 10^6 sp/ml GYPm and incubated for 24 h at 21 °C (110 rpm). […] Cells were harvested by filtration (100 µm) and rinsed with 15 ml of ice-cold HEPES buffer (0.1 M HEPES, 50 mM NaCl, pH 7.5). Harvested mycelium was resuspended in 3.5 ml HEPES buffer and kept on ice. 500 µl of each concentration was transferred to a 2 ml Eppendorf tube and heated to 56 °C on a thermoshaker for 3 min, an additional aliquot from each concentration was left unheated. After heating, cells were kept on ice for 3 min, snap frozen in liquid nitrogen, lyophilized overnight and then stored at −80 °C until protein extraction.\nLyophilized mycelium was lysed using a Retsch mixer mill (MM 400) with 3 mm tungsten carbide beads (30 Hz for 3 s, two cycles), then 500 µl of cold protein extraction buffer (50 mM HEPES, 50 mM NaCl, 0.4% NP-40) was added. Lysate was incubated for 10 min at 25 °C, centrifuged (10 min, 14,000g) and the supernatant was retained. The lysate was further centrifuged (20 min, 73,400g) to eliminate insoluble proteins. The supernatant was collected, and protein concentration was determined using the Qubit protein assay kit (#Q33211) and stored at −20 °C.\nTarget engagement was assessed by western blot. […] The membrane (target protein) and gel (loading control) were imaged using a ChemiDocXRS camera and quantified using ImageJ[43]. […]"}, "MAPK2K1 (MAP2K1)": {"target": "MAPK2K1 (MAP2K1) (Homo sapiens, UniProt Q02750)", "sequence (Q02750 whole entry)": "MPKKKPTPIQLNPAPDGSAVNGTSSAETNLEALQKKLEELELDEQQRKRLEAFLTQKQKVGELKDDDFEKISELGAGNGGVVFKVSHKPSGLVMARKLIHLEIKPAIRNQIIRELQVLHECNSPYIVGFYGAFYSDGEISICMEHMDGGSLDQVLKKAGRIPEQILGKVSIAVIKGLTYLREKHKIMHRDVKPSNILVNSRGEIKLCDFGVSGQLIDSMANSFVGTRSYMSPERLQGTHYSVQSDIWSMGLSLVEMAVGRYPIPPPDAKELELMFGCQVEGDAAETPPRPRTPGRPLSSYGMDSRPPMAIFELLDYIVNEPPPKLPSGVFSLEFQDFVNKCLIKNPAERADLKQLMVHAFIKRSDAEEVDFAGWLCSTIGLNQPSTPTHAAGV", "assay": "LiP-Quant, HeLa lysate", "assay_type": "binding"}, "EIF2AK2": {"target": "EIF2AK2 (Homo sapiens, UniProt P19525)", "sequence (P19525 whole entry)": "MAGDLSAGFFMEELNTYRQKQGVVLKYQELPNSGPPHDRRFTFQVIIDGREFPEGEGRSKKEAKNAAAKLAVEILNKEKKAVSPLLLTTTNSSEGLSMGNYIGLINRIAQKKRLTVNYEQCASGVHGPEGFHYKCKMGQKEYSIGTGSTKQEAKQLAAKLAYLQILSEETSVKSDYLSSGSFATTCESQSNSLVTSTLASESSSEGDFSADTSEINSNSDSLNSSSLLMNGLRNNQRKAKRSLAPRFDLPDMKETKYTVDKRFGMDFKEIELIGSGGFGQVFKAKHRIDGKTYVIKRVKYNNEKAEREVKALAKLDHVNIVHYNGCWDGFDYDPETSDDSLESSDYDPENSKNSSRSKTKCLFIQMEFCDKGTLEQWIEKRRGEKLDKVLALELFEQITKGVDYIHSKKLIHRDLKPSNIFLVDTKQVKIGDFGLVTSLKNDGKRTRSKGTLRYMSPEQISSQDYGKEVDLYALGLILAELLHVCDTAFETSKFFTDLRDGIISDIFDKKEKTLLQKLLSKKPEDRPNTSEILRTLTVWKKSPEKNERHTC", "assay": "Deep LiP-Quant (4h gradient), HeLa lysate", "assay_type": "binding"}, "[4]": {"target": "SRPK1_HUMAN (SRSF protein kinase 1) (Homo sapiens, UniProt Q96SB4)", "sequence (Q96SB4 whole entry)": "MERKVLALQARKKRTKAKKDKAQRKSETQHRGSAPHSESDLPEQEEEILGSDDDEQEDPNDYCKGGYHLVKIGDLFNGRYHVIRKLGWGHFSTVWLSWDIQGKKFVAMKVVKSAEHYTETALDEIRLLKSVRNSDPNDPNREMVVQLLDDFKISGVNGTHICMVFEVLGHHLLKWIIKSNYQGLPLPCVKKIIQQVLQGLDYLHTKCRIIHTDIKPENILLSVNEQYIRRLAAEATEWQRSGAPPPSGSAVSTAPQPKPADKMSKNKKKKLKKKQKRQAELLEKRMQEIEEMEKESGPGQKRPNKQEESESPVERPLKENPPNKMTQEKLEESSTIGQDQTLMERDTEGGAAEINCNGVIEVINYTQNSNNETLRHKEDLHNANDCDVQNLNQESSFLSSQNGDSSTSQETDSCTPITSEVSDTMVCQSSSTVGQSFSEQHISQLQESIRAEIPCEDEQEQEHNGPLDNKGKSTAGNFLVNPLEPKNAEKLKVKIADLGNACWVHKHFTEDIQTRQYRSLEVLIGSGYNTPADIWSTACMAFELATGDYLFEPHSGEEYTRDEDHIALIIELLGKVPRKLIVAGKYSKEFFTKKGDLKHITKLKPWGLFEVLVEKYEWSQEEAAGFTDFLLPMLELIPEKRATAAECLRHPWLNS", "assay": "LiP-Quant, HeLa lysate", "assay_type": "binding"}, "[5]": {"target": "CAMK2G (KCC2G_HUMAN, Calcium/calmodulin-dependent protein kinase type II subunit gamma) (Homo sapiens, UniProt Q13555)", "sequence (Q13555 whole entry)": "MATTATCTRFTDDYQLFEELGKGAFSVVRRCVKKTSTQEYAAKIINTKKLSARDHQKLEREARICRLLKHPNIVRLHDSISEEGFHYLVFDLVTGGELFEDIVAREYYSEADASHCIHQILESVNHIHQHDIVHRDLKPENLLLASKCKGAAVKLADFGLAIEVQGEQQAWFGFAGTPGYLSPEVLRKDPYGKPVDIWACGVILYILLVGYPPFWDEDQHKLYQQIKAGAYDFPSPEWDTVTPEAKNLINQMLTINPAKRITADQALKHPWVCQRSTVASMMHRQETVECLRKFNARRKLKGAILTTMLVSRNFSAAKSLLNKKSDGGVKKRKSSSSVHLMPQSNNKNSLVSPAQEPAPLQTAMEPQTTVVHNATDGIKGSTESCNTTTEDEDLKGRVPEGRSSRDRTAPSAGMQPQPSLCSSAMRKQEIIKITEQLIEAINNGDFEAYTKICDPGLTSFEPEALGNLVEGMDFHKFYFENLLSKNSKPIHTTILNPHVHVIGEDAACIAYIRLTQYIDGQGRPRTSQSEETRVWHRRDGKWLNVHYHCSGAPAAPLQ", "assay": "LiP-Quant, HeLa lysate", "assay_type": "binding", "settings": "staurosporine sheet; peptide NLINQMLTINPAK; LIPRank 5"}, "[6]": {"target": "CAMK2G (Calcium/calmodulin-dependent protein kinase type II subunit gamma, KCC2G_HUMAN) (Homo sapiens, UniProt Q13555)", "sequence (Q13555 whole entry)": "as above", "assay": "LiP-Quant, HeLa lysate", "assay_type": "binding", "settings": "peptide NLINQMLTINPAK"}, "RPS6KA3": {"target": "RPS6KA3 (Homo sapiens, UniProt P51812)", "sequence (P51812 whole entry)": "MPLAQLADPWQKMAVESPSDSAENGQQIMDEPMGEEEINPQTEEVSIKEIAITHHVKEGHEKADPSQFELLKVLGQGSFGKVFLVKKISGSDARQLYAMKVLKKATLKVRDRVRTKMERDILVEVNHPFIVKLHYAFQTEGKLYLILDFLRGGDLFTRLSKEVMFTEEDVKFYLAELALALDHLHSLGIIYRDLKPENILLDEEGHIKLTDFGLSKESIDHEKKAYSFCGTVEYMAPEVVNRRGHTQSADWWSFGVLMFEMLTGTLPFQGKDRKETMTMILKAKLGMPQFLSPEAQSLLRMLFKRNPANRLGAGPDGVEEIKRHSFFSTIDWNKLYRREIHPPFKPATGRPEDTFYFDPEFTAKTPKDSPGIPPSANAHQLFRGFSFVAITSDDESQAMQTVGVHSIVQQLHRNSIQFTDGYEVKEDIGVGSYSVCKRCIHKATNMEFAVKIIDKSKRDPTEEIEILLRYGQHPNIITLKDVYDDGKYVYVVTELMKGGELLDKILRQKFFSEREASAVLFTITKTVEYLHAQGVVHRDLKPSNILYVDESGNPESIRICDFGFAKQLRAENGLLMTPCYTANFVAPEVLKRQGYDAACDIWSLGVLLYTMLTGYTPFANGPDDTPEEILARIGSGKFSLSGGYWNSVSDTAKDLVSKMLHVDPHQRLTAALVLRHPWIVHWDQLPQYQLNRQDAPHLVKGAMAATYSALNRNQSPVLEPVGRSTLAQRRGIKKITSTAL", "assay": "Deep LiP-Quant (4h gradient), HeLa lysate", "assay_type": "binding"}, "[7]": {"target": "KS6A3_HUMAN (Ribosomal protein S6 kinase alpha-3) (Homo sapiens, UniProt P51812)", "sequence (P51812 whole entry)": "as above", "assay": "LiP-Quant, HeLa lysate", "assay_type": "binding"}, "[8]": {"test_system": "KS6A2_HUMAN (Ribosomal protein S6 kinase alpha-2)"}, "NEK9": {"target": "NEK9 (Homo sapiens, UniProt Q8TD19)", "sequence (Q8TD19 whole entry)": "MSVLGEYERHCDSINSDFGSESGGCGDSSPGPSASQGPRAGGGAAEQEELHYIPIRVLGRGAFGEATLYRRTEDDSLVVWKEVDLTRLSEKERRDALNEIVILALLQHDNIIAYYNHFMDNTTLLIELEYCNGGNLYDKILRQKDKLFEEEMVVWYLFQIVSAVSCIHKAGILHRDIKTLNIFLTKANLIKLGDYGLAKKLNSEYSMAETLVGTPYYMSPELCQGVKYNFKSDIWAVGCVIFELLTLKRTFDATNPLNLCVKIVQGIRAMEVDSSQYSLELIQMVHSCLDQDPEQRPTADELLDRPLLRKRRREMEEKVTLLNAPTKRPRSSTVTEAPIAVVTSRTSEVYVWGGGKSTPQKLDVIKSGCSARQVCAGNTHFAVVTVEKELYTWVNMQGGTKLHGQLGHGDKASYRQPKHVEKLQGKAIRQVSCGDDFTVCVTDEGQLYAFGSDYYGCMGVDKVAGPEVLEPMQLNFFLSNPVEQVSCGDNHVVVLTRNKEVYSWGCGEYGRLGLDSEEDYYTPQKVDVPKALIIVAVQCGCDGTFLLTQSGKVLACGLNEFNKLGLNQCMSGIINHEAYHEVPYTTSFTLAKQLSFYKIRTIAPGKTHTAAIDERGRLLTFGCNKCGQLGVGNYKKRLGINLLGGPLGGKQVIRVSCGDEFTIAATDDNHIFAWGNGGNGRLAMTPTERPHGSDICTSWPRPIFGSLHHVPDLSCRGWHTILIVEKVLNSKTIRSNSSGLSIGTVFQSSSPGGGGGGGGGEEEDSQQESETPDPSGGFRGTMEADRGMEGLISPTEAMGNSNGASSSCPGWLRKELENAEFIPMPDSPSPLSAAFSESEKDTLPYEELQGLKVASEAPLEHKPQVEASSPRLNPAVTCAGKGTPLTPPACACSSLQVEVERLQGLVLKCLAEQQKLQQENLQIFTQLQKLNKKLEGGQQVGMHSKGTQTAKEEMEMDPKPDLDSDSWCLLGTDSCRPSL", "assay": "Deep LiP-Quant (4h gradient), HeLa lysate"}, "[9]": {"settings": "peptide LPSGVFSL, MAP2K1 (Q02750)"}, "[10]": {"settings": "peptide STAGNFLVNPLEPK, SRPK1 (Q96SB4)"}, "[11]": {"settings": "protein level, experiment LiP-Quant"}, "[12]": {"settings": "peptide VLGQGSFGK, RPS6KA3 (P51812)"}},
  "note": "Where “and” joins values, the source holds several entries; their conditions need not be identical. Equal entries are not always repeated. Where two headings read alike, the source gives them in different places.",
  "data": [
    {"compound": "CCC(=O)Nc1cc(-c2c(-c3ccc(F)cc3)nn3c2CCC3)ccn1", "note": "[BAYE-004]", "values": [
      {"measurement": "EC50 lower than EC50 of the rest of the LiP-Quant peptides above the 1.5 threshold", "setting": "[1]", "result": "approximately 1000 fold"},
      {"measurement": "EC50", "setting": "[1]; two peptides, LiP-Quant rank #6 and #7", "result": "6 nM and 5 nM"},
      {"measurement": "% Inhibition of CK-1", "setting": "[2]; concentration 1,00E-04 (unit not given)", "result": "92% and 90%"},
      {"measurement": "% Inhibition of CK-1", "setting": "[2]; concentration 1,00E-05 (unit not given)", "result": "98% and 105%"},
      {"measurement": "% Inhibition of CK-1", "setting": "[2]; concentration 1,00E-06 (unit not given)", "result": "99% and 101%"},
      {"measurement": "% Inhibition of CK-1", "setting": "[2]; concentration 1,00E-07 (unit not given)", "result": "84% and 91%"},
      {"measurement": "% Inhibition of CK-1", "setting": "[2]; concentration 1,00E-08 (unit not given)", "result": "53% and 50%"},
      {"measurement": "% Inhibition of CK-1", "setting": "[2]; concentration 1,00E-09 (unit not given)", "result": 9, "unit": "%"},
      {"measurement": "IC50", "setting": "[2]; read-out: IC50 (% Inhibition of CK-1)", "result": 12.5, "unit": "nM"},
      {"measurement": "inhibition at 0.40745 µM", "setting": "Botrytis cinerea; Botrytis cinerea, 72 h, read-out: Inhibition of growth, Dose 0.40745 uM", "result": 76.8, "unit": "%"},
      {"measurement": "inhibition at 1.22234 µM", "setting": "Botrytis cinerea; Botrytis cinerea, 72 h, read-out: Inhibition of growth, Dose 1.22234 uM", "result": 82.5, "unit": "%"},
      {"measurement": "Inhibition of growth", "setting": "Botrytis cinerea; Dose 0.40745 uM", "result": "76.882 and 79.9248"},
      {"measurement": "Inhibition of growth", "setting": "Botrytis cinerea; Dose 1.22234 uM", "result": "82.7279 and 79.8427"},
      {"measurement": "EC50", "setting": "[3]", "result": 1600, "unit": "nM"},
      {"measurement": "thermal stability upon treatment", "setting": "His-tagged Bcin06g02870", "result": "thermally stabilized"}
    ]},
    {"compound": "CN[C@@H]1C[C@H]2O[C@@](C)([C@@H]1OC)n1c3ccccc3c3c4c(c5c6ccccc6n2c5c31)C(=O)NC4", "note": "[Staurosporine]", "values": [
      {"measurement": "DRC", "setting": "MAPK2K1 (MAP2K1); [9]", "result": 0.9366},
      {"measurement": "LIPRank", "setting": "MAPK2K1 (MAP2K1); [9]", "result": 2},
      {"measurement": "LIPscore", "setting": "MAPK2K1 (MAP2K1); peptide VSIAVIK (selumetinib sheet) or best peptide of the protein (Supp Data 7)", "result": 2.822},
      {"measurement": "LIPRank", "setting": "MAPK2K1 (MAP2K1); peptide VSIAVIK (selumetinib sheet) or protein level (Supp Data 7)", "result": 2},
      {"measurement": "LIPscore", "setting": "MAPK2K1 (MAP2K1); staurosporine sheet, peptide LPSGVFSL, LIPRank 2", "result": 2.822},
      {"measurement": "LiP Score", "setting": "EIF2AK2; peptide IGDFGLVTSLK", "result": 4.708},
      {"measurement": "LIPRank", "setting": "EIF2AK2; protein level", "result": 2},
      {"measurement": "DRC", "setting": "[4]; [10]", "result": 0.9525},
      {"measurement": "LIPRank", "setting": "[4]; [10]", "result": 1},
      {"measurement": "LIPRank", "setting": "[4]; [11]", "result": 1},
      {"measurement": "LIPscore", "setting": "[4]; [11]", "result": 3.113},
      {"measurement": "LIPscore", "setting": "[4]; staurosporine sheet, peptide […], LIPRank 1", "result": 3.113},
      {"measurement": "LIPscore", "setting": "[5]", "result": 2.655},
      {"measurement": "DRC", "setting": "[6]", "result": 0.9333},
      {"measurement": "LIPRank", "setting": "[6]", "result": 5},
      {"measurement": "LIPscore", "setting": "[6]", "result": 2.655},
      {"measurement": "LiP Score", "setting": "RPS6KA3; peptide ADPSQFELLK", "result": 4.635},
      {"measurement": "LIPRank", "setting": "RPS6KA3; protein level", "result": 3},
      {"measurement": "DRC", "setting": "[7]; [12]", "result": 0.9262},
      {"measurement": "LIPRank", "setting": "[7]; [12]", "result": 4},
      {"measurement": "LIPRank", "setting": "[7]; [11]", "result": 4},
      {"measurement": "LIPscore", "setting": "[7]; [11]", "result": 2.665},
      {"measurement": "LIPscore", "setting": "[7]; staurosporine sheet, peptide VLGQGSFGK, LIPRank 4", "result": 2.665},
      {"measurement": "LIPscore", "setting": "[8]; [11]", "result": 2.777},
      {"measurement": "LIPscore", "setting": "[8]; staurosporine sheet, peptide […], LIPRank 3", "result": 2.777},
      {"measurement": "LiP Score", "setting": "NEK9; peptide GAFGEATLYR", "result": 4.511},
      {"measurement": "LIPRank", "setting": "NEK9; protein level", "result": 4}
    ]}
  ]
}
